Experimental data reported in US20130005747A1, “METHOD FOR SELECTING A CANCER THERAPY” (Cyclacel Limited, priority 2010, published 2013).

How the values were obtained:
CS1R = assay: Fractional growth, 72 h seliciclib; assay type: cell-based, human; details: CS1R (Bone), 15 μM seliciclib
From the text: (§1) A total of 270 human cancer cell lines from diverse cancer histopathologic types were investigated.

H2596 = assay: Fractional growth, 72 h seliciclib; assay type: cell-based, human; details: H2596 (Lung), 15 μM seliciclib
From the text: as §1

HARA = assay: Fractional growth, 72 h seliciclib; assay type: cell-based, human; details: HARA (Lung: NSCLC), 15 μM seliciclib
From the text: as §1

HEC-1 = assay: Fractional growth, 72 h seliciclib; assay type: cell-based, human; details: HEC-1 (Uterus), 15 μM seliciclib
From the text: as §1

LU65C = assay: Fractional growth, 72 h seliciclib; assay type: cell-based, human; details: LU65C (Lung: NSCLC), 15 μM seliciclib
From the text: as §1

SHP-77 = assay: Fractional growth, 72 h seliciclib; assay type: cell-based, human; details: SHP-77 (Lung), 15 μM seliciclib
From the text: as §1

WM-115 = assay: Fractional growth, 72 h seliciclib; assay type: cell-based, human; details: WM-115 (Skin), 15 μM seliciclib
From the text: as §1

[1] = system: H-23 human lung cancer cell line; assay: Growth inhibition of lung cancer cells (FIG. 6); assay type: cell-based; details: for growth inhibition / sensitivity (in words): 72 hours post-treatments
From the text: (§2) Thus, findings from this large panel of cancer cell lines indicated significant roscovitine sensitivity well beyond those human and murine lung cancer cells already investigated. For lung cancer cells, this response is tightly associated with the presence of ras activation in highly responsive cells.

[2] = system: H-522 human lung cancer cell line; assay: Growth inhibition of lung cancer cells (FIG. 6); assay type: cell-based; details: for growth inhibition / sensitivity (in words): 72 hours post-treatments, wild-type ras
From the text: as §2

[3] = system: HOP-62 human lung cancer cell line; assay: Growth inhibition of lung cancer cells (FIG. 6); assay type: cell-based; details: for growth inhibition / sensitivity (in words): 72 hours post-treatments
From the text: as §2

[4] = seliciclib combined with docetaxel
[5] = seliciclib combined with paclitaxel

For `CC[C@H](CO)Nc1nc(NCc2ccccc2)c2ncn(C(C)C)c2n1` [seliciclib, roscovitine], the “Fractional Growth” value (CS1R) was 0.2923, the “Fractional Growth” value (H2596) was 0.7486 and the “Fractional Growth” value (HARA) was 0.6182. The “Fractional Growth” value (HEC-1) was 0.4632, the “Fractional Growth” value (LU65C) was 0.3767 and the “Fractional Growth” value (SHP-77) was 0.617. The “Fractional Growth” value (WM-115) was 0.5068, the “growth inhibition / sensitivity (in words)” value ([1]; listed as Seliciclib) was “dose-dependent growth inhibition” and the “growth inhibition / sensitivity (in words)” value ([1]; listed as roscovitine) was “more sensitive to roscovitine that H-522 lung cancer cells”. The “proliferation, combined treatment (in words)” value (“proliferation … (in words)” below) [1, 4] was “cooperatively inhibited proliferation”, the “proliferation … (in words)” value [1, 5] was “cooperatively inhibited proliferation” and the “growth inhibition / sensitivity (in words)” value ([2]; listed as Seliciclib) was “dose-dependent growth inhibition”. The “growth inhibition / sensitivity (in words)” value ([2]; listed as roscovitine) was “less sensitive than others examined”, the “proliferation … (in words)” value [2, 4] was “cooperatively inhibited proliferation” and the “proliferation … (in words)” value [2, 5] was “cooperatively inhibited proliferation”. The “growth inhibition / sensitivity (in words)” value ([3]; listed as Seliciclib) was “dose-dependent growth inhibition”, the “growth inhibition / sensitivity (in words)” value ([3]; listed as roscovitine) was “more sensitive to roscovitine that H-522 lung cancer cells” and the “proliferation … (in words)” value [3, 4] was “cooperatively inhibited proliferation”. The “proliferation … (in words)” value [3, 5] was “cooperatively inhibited proliferation”.
